Patent publication US12617777B2, “GPR84 antagonists and uses thereof” (Liminal BioSciences Limited, priority 2021, dated 2026)

Target: T1, human GPR84 receptor (Homo sapiens, UniProt Q9NQS5)
T1 construct: host or cells: HEK293, transient transfection
Assay: Gαi biosensor BRET assay in HEK293 cells (antagonism of ZQ-16)
Assay type: cell-based
Details: for inhibition at 10 µM: HEK293, single concentration 10 μM (designated F); for IC50: HEK293 cells, antagonism of 200 nmol/L ZQ-16; for inhibition at 25 µM: HEK293, single concentration 25 μM (designated I); for inhibition at 2 µM: HEK293, single concentration 2 μM (designated A)
In short: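 HEK293 cells transiently expressing human GPR84, Gαi2-Rluc8, GFP10-Gγ2 and Gβ1, in Tyrode's buffer pH 7.5. Compounds preincubated 5 min at 37° C, then 200 nmol/L ZQ-16 for 5 min at room temperature; coelenterazine 400A 5 μmol/L. BRET2 acceptor/donor ratio, background- and vehicle-corrected net BRET.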

T1 sequence (Q9NQS5 whole entry): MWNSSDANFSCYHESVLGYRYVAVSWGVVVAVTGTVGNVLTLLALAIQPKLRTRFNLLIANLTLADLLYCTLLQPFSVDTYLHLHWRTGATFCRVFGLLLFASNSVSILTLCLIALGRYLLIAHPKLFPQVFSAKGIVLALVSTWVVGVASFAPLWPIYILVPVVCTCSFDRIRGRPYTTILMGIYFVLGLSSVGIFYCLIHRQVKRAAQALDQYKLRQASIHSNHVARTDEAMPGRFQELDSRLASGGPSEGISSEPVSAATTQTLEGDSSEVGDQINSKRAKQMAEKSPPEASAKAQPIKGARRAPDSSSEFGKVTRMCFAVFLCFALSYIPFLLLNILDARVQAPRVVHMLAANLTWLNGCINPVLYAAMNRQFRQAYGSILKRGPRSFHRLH

Row | SMILES | inhibition at 10 µM [%] | IC50 [nM] | further results
1 | Cc1cc(C#CC2CC2)ccc1-c1cn(CC2CCCCO2)cn1 (centres unmarked) [Compound I-341] | 50 to 75 |  | 
2 | Cc1cc(N2CCNCC2)ccc1-c1cn(CC2CCCCO2)nn1 (centres unmarked) [Compound I-183] | ≤ 25 |  | 
3 | C(#CC1CC1)c1ccc2c(c1)CCc1c-2nnn1CC1CCCCO1 (centres unmarked) [Compound I-303, 7-(cyclopropylethynyl)-3-((tetrahydro-2H-pyran-2-yl)methyl)-4,5-dihydro-3H-naphtho[1,2-d][1,2,3]triazole] | ≤ 25 |  | 
4 | Cc1cc(C#CC2CC2)ccc1-c1cn(CC2COc3ccccc3O2)nn1 (centres unmarked) [Compound I-101] | 25 to 50 |  | 
5 | C(#CC1CC1)c1ccc2c(c1)CCc1cnn(CC3CCCCO3)c1-2 (centres unmarked) [Compound I-329] | 25 to 50 | 300 to 1000 | 
6 | Cc1cc(C#CC2CC2)ccc1-c1cn(Cc2ccccn2)nn1 [Compound I-312] | 25 to 50 |  | 
7 | C(#CC1CC1)c1cccc(-c2cnn(CC3CCCCO3)c2)c1 (centres unmarked) [Compound I-320] |  |  | inhibition at 25 µM: ≤ 25%
8 | CS(=O)(=O)c1cc(C#CC2CC2)ccc1-c1cn(CC2CCCCO2)nn1 (centres unmarked) [Compound I-219] | ≤ 25 |  | 
9 | Cc1cc(C#CC2CC2)ccc1-n1cc(CN2CCCCC2)nn1 [Compound I-296] |  |  | inhibition at 25 µM: ≤ 25%
10 | Cc1cc(F)c(C#CC2CC2)cc1-c1cn(CC2CCCCO2)nn1 (centres unmarked) [Compound I-249] | 50 to 75 |  | 
11 | Cc1cc(C#CCNc2ccccc2)cnc1-c1cn(C[C@H]2CCCCO2)nn1 [Compound I-394] | > 75 |  | 
12 | O=C(O)c1cc(C#CC2CC2)ccc1-c1cn(CC2CCCCO2)nn1 (centres unmarked) [Compound I-309] | ≤ 25 |  | 
13 | Cc1cc(C#CCNC(C)(C)C)ccc1-c1cn(CC2CCCCO2)nn1 (centres unmarked) [Compound I-267] | 25 to 50 |  | 
14 | C(#CC1CC1)c1ccc(-n2cc(CC3CCCO3)nn2)cc1 (centres unmarked) [Compound I-295] |  |  | inhibition at 25 µM: ≤ 25%
15 | COc1ccc(C#CC2CC2)cc1-c1cn(CC2CCCCO2)nn1 (centres unmarked) [Compound I-125] | ≤ 25 |  | 
16 | Cc1cc(C2CCN(Cc3ccccn3)CC2)cnc1-c1cn(CC2CCCCO2)nn1 (centres unmarked) [Compound I-482] | ≤ 25 |  | 
17 | Cc1cc(C#CC2CC2)ccc1-c1ncn(CC2CCCCO2)c1C (centres unmarked) [Compound I-339] | 25 to 50 |  | 
18 | CCc1cc(C#CCN2CCC(F)(F)CC2)cnc1-c1cn(CC2CCCCO2)nn1 (centres unmarked) [Compound I-275] | > 75 |  | 
19 | Cc1cc(N2CCC3(CC2)CN(Cc2ccccc2)C3)ccc1-c1cn(CC2CCCCO2)nn1 (centres unmarked) [Compound I-173] | ≤ 25 |  | 
20 | Cc1cc(C#CC2CC2)ccc1-c1cn(CC2CCC(=O)N2)nn1 (centres unmarked) [Compound I-542] |  |  | inhibition at 2 µM: ≤ 25%
21 | C[S+]([O-])c1cc(C#CC2CC2)ccc1-c1cn(CC2CCCCO2)nn1 (centres unmarked) [Compound I-218] | ≤ 25 |  | 
22 | COC(=O)N1CCOCC1Cn1cc(-c2ccc(C#CC3CC3)cc2C)nn1 (centres unmarked) [Compound I-106] | ≤ 25 |  | 
23 | Cc1cc(N2CCN(Cc3ccccn3)CC2)ccc1-c1cn(CC2CCCCO2)nn1 (centres unmarked) [Compound I-237] | > 75 | 1000 to 3000 | 
24 | C(#CC1CC1)c1ccc(-c2cn(CC3CCCCO3)nn2)c(N2CCOCC2)c1 (centres unmarked) [Compound I-198] | 25 to 50 |  | 
25 | COC(=O)C1CCCN1CC#Cc1ccc(-c2cn(CC3CCCCO3)nn2)c(C)c1 (centres unmarked) [Compound I-233] | 50 to 75 |  | 

The next lines start with results.

Row | inhibition at 10 µM [%] | IC50 [nM] | SMILES | further results
26 | ≤ 25 |  | Cc1cc(N2CC3(CCCN3Cc3ccccn3)C2)ccc1-c1cn(CC2CCCCO2)nn1 (centres unmarked) [Compound I-590] | 
27 | 50 to 75 |  | CNC1(C)CN(c2ccc(-c3cn(CC4CCCCO4)nn3)c(C)c2)C1 (centres unmarked) [Compound I-506] | 
28 | 50 to 75 |  | Cc1ccc(C(C)(C)O)cc1N(C)c1cn(CC2OCC(C)(C)CO2)nn1 [Compound I-830] | 
29 | ≤ 25 |  | Cc1cc(OCC(F)(F)F)cnc1-c1cn(CC2OCC(C)(C)CO2)nn1 [Compound I-638] | 
30 | ≤ 25 |  | Cc1cc(N2CC3(CN(c4cccnc4)C3)C2)ccc1-c1cn(CC2CCCCO2)nn1 (centres unmarked) [Compound I-629] | 
31 | > 75 | 300 to 1000 | Cc1cc(N2CC(C)(NCc3ccccn3)C2)c(F)cc1-c1cn(CC2CCCCO2)nn1 (centres unmarked) [Compound I-737] | 
32 | > 75 |  | COCC1CN(c2ccc(-c3cn(CC4OCC(C)(C)CO4)nn3)c(N(C)C)c2)C1 [Compound I-755] | 
33 |  | ≤ 300 | CC1(C)COC(Cn2cnc(-c3ncc(C#CC4CC4)cc3OC3CC3)c2)OC1 [Compound I-831] | inhibition at 2 µM: > 75%
34 | > 75 | ≤ 300 | Cc1cccc(-c2cn(CC#Cc3ccc(-c4cn(CC5CCCCO5)nn4)c(C)c3)nn2)c1 (centres unmarked) [Compound I-492] | 
35 |  | 300 to 1000 | CC(=O)N(c1cn(CC2OCC(C)(C)CO2)nn1)c1cc(C#CC2CC2)ccc1C [Compound I-792, N-(5-(cyclopropylethynyl)-2-methylphenyl)-N-(1-((5,5-dimethyl-1,3-dioxan-2-yl)methyl)-1H-1,2,3-triazol-4-yl)acetamide] | inhibition at 2 µM: > 75%
36 |  | 300 to 1000 | Cc1cc(C#CCNC2CC2)ccc1-c1cn(CC2OCC(C)(C)CO2)cn1 [Compound I-820] | inhibition at 2 µM: > 75%
37 |  | 1000 to 3000 | Cc1ccc(C#CC2CC2)cc1C(CC1CC1)c1cn(CC2OCC(C)(C)CO2)nn1 (centres unmarked) [Compound I-714] | inhibition at 2 µM: > 75%
38 | 50 to 75 | ≤ 300 | CC1(C)CN(c2ccc(-c3cn(C[C@H]4CCCCO4)nn3)c(OC3CC3)c2)C1 [Compound I-749] | inhibition at 2 µM: > 75%
39 |  | ≤ 300 | C[C@@H]1Cc2oc(C(=O)NCc3cnc(C4CC4)cn3)c(C(F)(F)F)c2-c2nn(C[C@H]3COCCO3)cc21 [Compound I-775] | 
40 | ≤ 25 |  | Cc1cc(N2CCN(c3ccncc3)CC2)ccc1-c1cn(CC2CCCCO2)nn1 (centres unmarked) [Compound I-563] | 
41 | ≤ 25 |  | CN(c1cccc(C#CC2CC2)c1)c1cn(CC2OCC(C)(C)CO2)nn1 [Compound I-824] | 
42 |  | 300 to 1000 | Cc1ccc(C#CC2CC2)cc1Oc1cn(CC2OCC(C)(C)CO2)nn1 [Compound I-773] | 
43 | ≤ 25 |  | Cc1cc(C#CCN2CC(C)(C)C2)cnc1-c1nnn(CC2OCC(C)(C)CO2)n1 [Compound I-835] | 
44 | > 75 |  | Cc1cc(N2CC3(CN(c4cccnc4)C3)C2)ccc1-c1cn(CC2OCC(C)(C)CO2)nn1 [Compound I-684] | 
45 | > 75 | 300 to 1000 | Cc1cc(C#CCNC(=O)OC(C)(C)C)cnc1-c1cn(CC2CCCCO2)nn1 (centres unmarked) [Compound I-538] | 
46 | ≤ 25 |  | Cc1cc(N2CCC(C)(C)C2)cnc1-c1cn(CC2CCCCO2)nn1 (centres unmarked) [Compound I-555] | 
47 | > 75 | ≤ 300 | CC1(C)COC(Cn2cc(-c3ncc(C#CC4CC4)cc3Cl)nn2)OC1 [Compound I-708] | 
48 | > 75 | ≤ 300 | CC(C)Oc1cc(C#CC2CC2)cnc1-c1cn(CC2OCC3(CCC3)O2)nn1 (centres unmarked) [Compound I-797] | 
49 |  | 300 to 1000 | Cc1ccc(C#CC2CC2)cc1N(C)c1cn(CC2OCC(C)(C)CO2)nn1 [Compound I-761, N-(5-(cyclopropylethynyl)-2-methylphenyl)-1-((5,5-dimethyl-1,3-dioxan-2-yl)methyl)-N-methyl-1H-1,2,3-triazol-4-amine] | 
50 | 25 to 50 |  | Cc1cc(C2CC2)cnc1-c1cn(CC2OCC(C)(C)CO2)nn1 [Compound I-871] | 
51 |  | ≤ 300 | Cc1cc(C#CCn2cc(-c3ccc(N(C)C)cc3)nn2)cnc1-c1cn(CC2OCC(C)(C)CO2)nn1 [Compound I-668] | inhibition at 2 µM: > 75%
